Like-named read-outs stand apart in the source and are kept apart here.
What was measured:
[1] = Solubility assay (Example 2, percent soluble by UV absorbance); conditions: PBS buffer (0.1M) at pH 7.4
Method: (§1) A solution of the compound (e.g., glucagon or analogues thereof) was prepared in a 0.01M HCl solution. Then 0.1 mL of the stock solution was diluted to 1 mL with HCl (0.01M) and the UV absorbance was measured (to 280 nm) with NanoDrop UV spectrometer (NanoDrop 1000 from Thermo Fischer Company). The pH of the remaining stock solution was adjusted to pH 7 using Na2HPO4 (0.1M) and the solution was allowed to stand overnight at 4° C. Then the solution was centrifuged three times (5 min, 4000 min^−1), 0.1 mL of the supernatant was removed and diluted to 1 mL with HCl solution (0.01M). The final UV absorbance was measured. The solubility was accessible by the following formula: (Final Absorbance/Initial Absorbance)×100=Percent Soluble

[2] = pH 7.4
Method: as §1

[3] = Stability assay in NaCl 0.9% aqueous solution (RP-HPLC); type: physicochemical; conditions: 1 mg/mL
Method: A solution of 1 mg/mL of peptide or peptidomimetic (glucagon or analog thereof) was prepared in a NaCl 0.9% aqueous solution and stored at room temperature, or 4° C., or 37° C. and or 50° C. The samples were analyzed by RP-HPLC on a Dionex U3000SD using a Macherey-Nagel Nucleodur C18ec column (4×100 mm, 3 μm) at a flow rate of 1 mL/min with UV detection at 200 nm. The mobile phase was composed of 0.1% (v/v) TFA-H2O (Solvent A) and 0.1% (v/v) TFA-CH3CN (Solvent B).

[4] = system: Wistar Rat; experiment: Rat studies, blood glucose after i.v. dosing (Example 2); type: in vivo; conditions: Wistar rats, 3 hours fasting, 10 nM/kg i.v., FIGS. 12 and 13
From the text: The rats (Wistar Rat, males, 8-week old, n=6 or 3) were housed in ventilated and enriched housing cages (310×125×127 mm^3) throughout the experimental phase. […] The rates were acclimated for 5 days with standard diet and tap water.

| Substance | Solubility at 1 mg/mL [1] | Solubility at 1 mg/mL [2] | Percentage of peptide remaining ([3]; 4° C., 1 month (T0 = 100%)) | Percentage of peptide remaining ([3]; 4° C., 1 week (T0 = 100%)) | Percentage of peptide remaining ([3]; 4° C., 5 months (T0 = 100%)) | Percentage of peptide remaining ([3]; RT, 1 month (T0 = 100%)) | Percentage of peptide remaining ([3]; RT, 1 week (T0 = 100%)) | Percentage of peptide remaining ([3]; RT, 5 months (T0 = 100%)) | Glycogen breakdown (increased blood glucose levels) compared to glucagon [4] |
| --- | --- | --- | --- | --- | --- | --- | --- | --- | --- |
| K*PHSQGTFTSDYSKYLDSRRAQDFVQWLLNT-NH2 [Peptide 22] | 34% | – | – | – | – | – | – | – | – |
| EPHSQGTFTSDYSKYLDSRRAQDFVQWLLNT-NH2 [Peptide 18] | – | 18% | – | – | – | – | – | – | – |
| KPKPKPHSQGTFTSDYSKYLDSRRAQDFVQWLLNT-NH2 [Peptide 14] | 77% | – | 99% | 99% | 97% | 97% | 99% | 87% | greater glycogen breakdown |
